From PubChem BioAssay (NCI)
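48-hour exposure; five concentrations; linearly interpolated endpoints. Abbreviation: GI50, concentration required for 50% inhibition of growth. Definition used: TGI = concentration required for complete inhibition of growth.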

Experiments:
Test in all cases: NCI tumour cell line growth inhibition, 48 h
[1] = test system: U251 CNS
[2] = test system: NCI-H522 lung
[3] = test system: HCT-15 colon
[4] = test system: SK-OV-3 ovarian
[5] = test system: A498 renal
[6] = test system: NCI/ADR-RES ovarian
[7] = test system: HCC-2998 colon
[8] = test system: NCI-H226 lung
[9] = test system: OVCAR-8 ovarian
[10] = test system: SF-539 CNS
[11] = test system: UO-31 renal
[12] = test system: UACC-62 melanoma
[13] = test system: 786-0 renal
[14] = test system: RXF 393 renal
[15] = test system: SK-MEL-28 melanoma
[16] = test system: CAKI-1 renal
[17] = test system: HS 578T breast
[18] = test system: SR leukemia
[19] = test system: MALME-3M melanoma
[20] = test system: HCT-116 colon
[21] = test system: RPMI-8226 leukemia
[22] = test system: OVCAR-4 ovarian
[23] = test system: SF-268 CNS
[24] = test system: OVCAR-5 ovarian
[25] = test system: KM12 colon
[26] = test system: MCF7 breast
[27] = test system: T-47D breast
[28] = test system: MDA-MB-231 breast
[29] = test system: TK-10 renal
[30] = test system: HOP-92 NSCLC
[31] = test system: IGROV1 ovarian
[32] = test system: MOLT-4 leukemia
[33] = test system: CCRF-CEM leukemia
[34] = test system: PC-3 prostate
[35] = test system: ACHN renal
[36] = test system: NCI-H460 lung
[37] = test system: SNB-19 CNS
[38] = test system: BT-549 breast
[39] = test system: MDA-MB-468 breast
[40] = test system: SF-295 CNS
[41] = test system: HOP-62 NSCLC

Q: Which results are given for `O=C(Nc1ccc(C(F)(F)F)cc1)Nc1ccc2oc(=O)ccc2c1`?
A: GI50 [1]: 4.34 µM; TGI [1]: > 100 µM; GI50 [2]: 2.8 µM; TGI [2]: > 100 µM; GI50 [3]: 2.91 µM; TGI [3]: > 100 µM; GI50 [4]: 91.4 µM; TGI [4]: > 100 µM; GI50 [5]: > 100 µM; TGI [5]: > 100 µM; GI50 [6]: 3.86 µM; TGI [6]: > 100 µM; GI50 [7]: 3.51 µM; TGI [7]: > 100 µM; GI50 [8]: 3.67 µM; TGI [8]: > 100 µM; GI50 [9]: 5.93 µM; TGI [9]: > 100 µM; GI50 [10]: 5.81 µM; TGI [10]: > 100 µM; GI50 [11]: 2.14 µM; TGI [11]: > 100 µM; GI50 [12]: 5.76 µM; TGI [12]: > 100 µM; GI50 [13]: 19.3 µM; TGI [13]: > 100 µM; GI50 [14]: 18.2 µM; TGI [14]: > 100 µM; GI50 [15]: > 100 µM; TGI [15]: > 100 µM; GI50 [16]: 2.58 µM; TGI [16]: > 100 µM; GI50 [17]: 16.7 µM; TGI [17]: > 100 µM; GI50 [18]: 3.86 µM; TGI [18]: > 100 µM; GI50 [19]: 4.87 µM; TGI [19]: > 100 µM; GI50 [20]: 2.95 µM; TGI [20]: > 100 µM; GI50 [21]: 2.04 µM; TGI [21]: 5.87 µM; GI50 [22]: 5.4 µM; TGI [22]: > 100 µM; GI50 [23]: 18.6 µM; TGI [23]: > 100 µM; GI50 [24]: > 100 µM; TGI [24]: > 100 µM; GI50 [25]: 3.51 µM; TGI [25]: > 100 µM; GI50 [26]: 2.48 µM; TGI [26]: > 100 µM; GI50 [27]: 2.85 µM; TGI [27]: > 100 µM; GI50 [28]: 11.7 µM; TGI [28]: > 100 µM; GI50 [29]: > 100 µM; TGI [29]: > 100 µM; GI50 [30]: 1.49 µM; TGI [30]: 5.73 µM; GI50 [31]: 3.55 µM; TGI [31]: > 100 µM; GI50 [32]: 2.86 µM; TGI [32]: > 100 µM; GI50 [33]: 3.2 µM; TGI [33]: > 100 µM; GI50 [34]: 2.34 µM; TGI [34]: > 100 µM; GI50 [35]: 2.7 µM; TGI [35]: > 100 µM; GI50 [36]: 4.17 µM; TGI [36]: > 100 µM; GI50 [37]: 4.37 µM; TGI [37]: > 100 µM; GI50 [38]: 3.4 µM; TGI [38]: > 100 µM; GI50 [39]: 2.97 µM; TGI [39]: > 100 µM; GI50 [40]: 2.63 µM; TGI [40]: > 100 µM; GI50 [41]: 9.77 µM; TGI [41]: > 100 µM
